A melting point compilation (Tetko et al.; mined from patent text by program, amines drawn as free bases though some values may be those of a salt)

COc1ccccc1-c1ccc(C(=O)N2Cc3ccc(C(=O)N(C)CC(O)CO)n3Cc3ccccc32)cc1C (stereo not given) gave a melting point of 174 to 184 °C. For N#Cc1ccc(S(=O)(=O)c2ccc(S(N)(=O)=O)s2)c(F)c1, the melting point was 200 to 202 °C. For Cc1c(Cl)sc2[nH]c(=O)c(-c3ccccc3)c(O)c12, the melting point was 105 to 107 °C. N#Cc1c(-c2ccc(OCc3ccccc3)cc2)[nH]c2ccc(OCc3ccccc3)cc12 showed a melting point of 64 to 66 °C. In the case of NC1CCN(C(=O)c2ccc(-c3[nH]nc4c3C(=O)c3c(NC(=O)NN5CCOCC5)cccc3-4)s2)C1 (stereo not given), the melting point was 201 to 202 °C. In the case of CC#CCN(c1nc(-c2ccc(OC)cc2Cl)c(C)s1)C(COC)c1ccccc1 (stereo not given), the melting point was 70 °C. COc1ccc(-c2c(C(=O)O)n(Cc3cc4c(cc3Cl)OCO4)c3ccccc23)cc1 gave a melting point of 189 to 190 °C. Work on COc1ccc(-c2nn(Cc3ccccc3)c(=O)cc2-c2ccc(Cl)cc2)cc1 yielded a melting point of 165 to 167 °C. Work on Fc1ccc(Cn2c(NC3CCN(CCc4cn5ccsc5n4)CC3)nc3ccccc32)cc1 yielded a melting point of 223 °C. CC(C)(C)[Si](C)(C)Oc1cccc(C2(Br)C(=O)NC(=O)NC2=O)c1 showed a melting point of 170 to 172 °C. Cc1c(C(=O)Nc2ccc(N3CCC(N4CCOCC4)CC3)c([N+](=O)[O-])c2)cnn1-c1ccc(C(F)(F)F)cc1 gave a melting point of 225 to 230 °C. In the case of N#Cc1nn(-c2c(Cl)cc(C(F)(F)F)cc2Cl)c(N)c1-c1cccc([N+](=O)[O-])c1, the melting point was 212 to 214 °C. CN(N(C)S(C)(=O)=O)S(C)(=O)=O gave a melting point of 168 to 169 °C. In the case of Nc1ncc(C(=O)Cl)cc1Cl, the melting point was over 250 °C. For CN1C(=O)[C@](C)(C(=O)O)Oc2ccccc21, the melting point was 139 to 142 °C. For CC(=O)N1CCN(Cc2nc(-c3ccc4c(c3)Nc3ccccc3S4)cs2)CC1, the melting point was 218 to 220 °C. Work on N#Cc1ccccc1Cn1cc(-c2ccnc(N)c2)n(-c2ccc(F)cc2)c1=O yielded a melting point of 182 to 183 °C. CC1(C)CCOC1=C(n1ccnc1)S(=O)(=O)c1ccc(Cl)cc1 showed a melting point of 192 to 194 °C. Compound C=CCO[C@H]1[C@@H](OCc2ccccc2)[C@@H](OCc2ccccc2)[C@H](OCc2ccccc2)[C@@H](OCc2ccccc2)[C@]1(O)CC=C (racemic) has a melting point of 97.5 °C. COc1cc2c(cc1OC)C(c1ccccc1N)=NN=C(C)C2 gave a melting point of 172 to 174 °C. Work on CCCN(C1CCC1)[C@H]1COc2c(F)ccc(C(N)=O)c2C1 yielded a melting point of 107 to 109 °C. With CCOC(=O)CC(=O)c1cc(F)c(F)cc1F the melting point was 57 to 59 °C. For Oc1ccc(-c2cnc(S)o2)cc1O, the melting point was 215 to 218 °C. CCOC(=O)CSc1nc(Cl)cc(Nc2ccc(-c3ccccc3)cc2)n1 gave a melting point of 110 to 112 °C. Work on Cc1cc(C)c(O)c(-c2cc(C(C)C)ccc2C(C)C)c1 yielded a melting point of 179 °C. CC(=O)OCC1OC(n2cc(Cc3ccc4occc4c3)c3c(F)cccc32)C(OC(C)=O)C(OC(C)=O)C1OC(C)=O (stereo not given) gave a melting point of 184 to 185 °C. With Cc1nnc(-c2ccc3occ(-c4cccc(C(F)(F)F)c4)c3c2)o1 the melting point was 126 to 127 °C. For Cn1c(N)c(C#N)c(Cl)c1C=O, the melting point was 282 to 285 °C. Work on Cc1oc(-c2ccccc2)nc1CCC(=O)O yielded a melting point of 124 to 125 °C. Compound COC(=O)C1Cc2c([nH]c3ccccc23)CN1C(=S)SC (stereo not given) has a melting point of 132 to 134 °C. In the case of CC(c1ccc2c(c1)Cc1ccccc1-2)n1ccnn1 (stereo not given), the melting point was 160 to 162 °C. For COc1ccc(-c2cc(CN3C(=O)c4ccccc4C3=O)c(=O)n(CC3CC3)n2)cc1F, the melting point was 242 to 244 °C. CN1CCN(c2cccc(Nc3ncc4ccc(-c5cn[nH]c5)n4n3)c2)CC1 gave a melting point of 195 °C. Work on O=C(Nc1ccc(-n2nc(C(F)(F)F)cc2C2CC2)c(F)c1)C1(c2ccccc2)CCC1 yielded a melting point of 72 to 76 °C. With Cc1ccccc1N(C(=O)Nc1cc(C)c(S(=O)(=O)C[N+](=O)[O-])c(C)c1)C(C)C the melting point was 177 to 178 °C. In the case of CN1CCN(c2cc(Cl)cc3c2c(=O)n(Cc2ccccc2[N+](=O)[O-])c(=O)n3Cc2ccccc2)CC1, the melting point was 164 to 169 °C. In the case of Clc1cccc(Nc2nc(OCC3CCCCC3)c3[nH]cnc3n2)c1, the melting point was 196 to 199 °C. CNC1Cc2ccccc2C1Nc1ccc(Cc2ccccc2)cc1 (stereo not given) gave a melting point of 137 to 138 °C. Work on COC(=O)[C@H](CC(C)C)NC(=O)c1ccco1 yielded a melting point of 88 to 90 °C. Compound Cc1nc2c(cc1CO)CCCCC2 has a melting point of 79 to 80 °C. Work on NS(=O)(=O)Nc1ccc(CCN2CCC(COC(c3ccccc3)c3ccccc3)CC2)cc1 yielded a melting point of 172 to 174 °C. Cc1ccc(C(Cl)=NNc2ccccc2)cc1 showed a melting point of 133 to 134 °C. Compound COc1ccc(/C=C(\C#N)c2cc(OC)c(OC)c(OC)c2)cc1[N+](=O)[O-] has a melting point of 158 to 159 °C. For CCCc1nc2ccc(N)cc2n1Cc1ccccc1Cl, the melting point was 121 to 122 °C. Work on CC(C)n1c(/C=C/C2CC(O)CC(=O)O2)c(-c2ccc(F)cc2)c2ccccc2c1=O (stereo not given) yielded a melting point of 151 to 154 °C. Cc1cc(C)c(Nc2nc(C)ncc2S(=O)(=O)c2ccc(C3=NCCN3)cc2)c(C)c1 gave a melting point of 240 to 242 °C. For Cc1noc(C)c1-c1ccccc1C=NC(c1ccccc1)c1ccccc1, the melting point was 165 to 167 °C. COc1ccc2nccc(NC(=O)N3CCN(CC(O)c4ccc5c(c4)NC(=O)CO5)CC3)c2n1 (stereo not given) gave a melting point of 231 to 233 °C. Work on O=C(c1sc(-c2nc3ccccc3[nH]2)nc1-c1ccco1)C1CCOCC1 yielded a melting point of 250 to 251 °C. In the case of CC(=O)c1cccc(NC(=O)NCC(=O)N(CC(=O)N2CCCc3ccccc32)c2ccccc2)c1, the melting point was 130 °C. Compound O=S(=O)(Nc1ccc(F)cc1C(=NOc1ccc(Cl)cc1)c1ccccc1)C(F)(F)F has a melting point of 90 to 93 °C. In the case of O=c1c2ccccc2c(Cc2ccc(F)cc2)nn1N1CCNCC1, the melting point was 157 to 159 °C. Work on CSc1ncnc2c(N(C)C3CCCCC3)nc(Cl)nc12 yielded a melting point of 135 to 137 °C. With COc1ccc2c(c1)c(-c1cc3c(OC)ncnc3[nH]1)cn2C the melting point was 184 °C. For COc1ccc(-c2ccc3ccc(N)nc3n2)cc1, the melting point was 220 °C. Compound Cc1nc(C)c(Cl)c(NCc2nccc(OCCOCCSCCn3c([N+](=O)[O-])cnc3C)c2C)n1 has a melting point of 102 to 105 °C. For CCCCCCn1cnc(NC)c1C(=O)NCCCCCCOc1ccc(Cl)cc1, the melting point was 55 to 56 °C. Work on C[C@]12CCC(=O)N[C@@H]1CCc1cc(Sc3ccc(F)cc3)ccc12 yielded a melting point of 179 to 181 °C. In the case of Nc1c[nH]c(=S)n1C1CCc2ccccc2C1 (stereo not given), the melting point was 169 to 171 °C. With COc1ccc(COC(=O)Nc2cncc(O)c2CCCOc2cccnc2Oc2cccc(Cl)c2)cc1 the melting point was 150 °C. COc1cccc(CC(=O)O)c1OCCc1ccccc1 showed a melting point of 88 to 89 °C. For Nc1sc2c(c1C(=O)c1ccccc1)CCSC2, the melting point was 92 to 95 °C. Work on CC1(C)OC(c2ccc(S(C)(=O)=O)cc2)=C(c2ccc(S(C)(=O)=O)cc2)C1=O yielded a melting point of 245 to 257 °C. O=S(=O)(c1ccccc1)c1c[nH]c2ccc(CCO)cc12 gave a melting point of 55 to 60 °C. With COc1c(C)cnc(C(Br)C#N)c1C (stereo not given) the melting point was 56 to 57 °C. For Cn1nc([N+](=O)[O-])nc1Br, the melting point was 90.5 to 91.5 °C. Work on CC(C)(C)C1(C(F)n2cncn2)CO1 (stereo not given) yielded a melting point of 72 to 74 °C. For Cc1ccc(C2=CCCNC2)nc1C, the melting point was 102 to 104 °C. With COC(=O)c1ccc(Oc2ccc(N3CCN(c4ccncc4)CC3)cc2)nc1 the melting point was 143 to 144 °C. Work on CN(c1cccc2cc(C3=NCC(C(C)(C)O)S3)[nH]c12)S(=O)(=O)c1cccs1 (stereo not given) yielded a melting point of 174 to 175 °C. CN1C(=O)N(CC(=O)O)C(=O)C1(C)C gave a melting point of 130 to 132 °C. In the case of Cc1nc2nccc(-c3cccs3)n2n1, the melting point was 184 to 185 °C. Compound CCOC(=O)CC(=O)C=CNc1cc(C)no1 has a melting point of 93 to 95 °C. For CCOc1cccc(SCC(=O)O)c1CC(=O)O, the melting point was 147 to 150 °C. With CNc1ncccc1C(=O)Nc1ccc2c(c1)-c1c(c(C(N)=O)nn1-c1ccc3c(c1)OCO3)CC2 the melting point was 273 to 275 °C. With CCS(=O)CCON=Cc1nn(-c2c(Cl)cc(C(F)(F)F)cc2Cl)c(N)c1S(C)=O (stereo not given) the melting point was 144 to 148 °C. For COC(=O)N=C(NC(=O)OC)SC, the melting point was 99 to 101 °C. Work on COc1ccc(C2(C#Cc3cccc(N)c3)CCCC(=O)C2)cc1OC1CCCC1 (stereo not given) yielded a melting point of 100 to 102 °C. Nc1nc2c(ncn2COCCOCCO)c(=O)[nH]1 showed a melting point of 184 to 187 °C. In the case of O=C1NC(=O)c2c1c(-c1ccccc1)cc1c2c2cc(O)ccc2n1CCCn1ccnc1, the melting point was 309 to 311 °C. Nc1cc(=O)n(Cc2ccc(Cl)c(Br)c2)[nH]1 showed a melting point of 171 to 172 °C. With O=Cc1c2ccccc2cc2c1sc1ccccc12 the melting point was 199 °C. Cc1cc(OCC(=O)c2ccc(C(C)C)cc2)cc(C)c1C showed a melting point of 96 to 98 °C. Compound CCCCc1nc2cccc(C)c2c(=O)n1C1CCC(=O)NC1=O (stereo not given) has a melting point of 190 to 192 °C. Compound O=C(NC1N=C(c2ccccc2F)c2ccccc2NC1=O)c1ccc(C(F)(F)F)cc1 (racemic) has a melting point of 209 to 211 °C. Work on COc1cc(CC2SC(N3CCCC3)=NC2=O)cc(-c2ccc(O)c(C3(C)CCCCC3)c2)c1 (stereo not given) yielded a melting point of 88 to 91 °C. Work on O=C(CCCCCl)c1cccc2cc3c(C(=O)CCCCCl)cccc3cc12 yielded a melting point of 146 to 148 °C. With CC(=O)C(CCCc1ccccc1)n1cnc2c(=O)[nH]c(Cc3ccc(OC(F)F)c(N)c3)nc21 (stereo not given) the melting point was 149 to 150 °C. COC(=O)c1ncc(C(=O)O)cc1Cl gave a melting point of 182 to 184 °C. CCOC(=O)C1CN(Cc2ccccc2)C(=O)C(=C2SC=CS2)C1=O (stereo not given) gave a melting point of 127 to 129 °C. Compound O=C(C=Cc1ccccc1)CC(=O)C=Cc1ccccc1 has a melting point of 138 °C. In the case of C=CCNc1nc(NC(C)CC)c2scc(C)c2n1 (stereo not given), the melting point was 91 to 92 °C. O=C1C=C(O)C(=O)c2cc(-c3ccccc3)ccc21 gave a melting point of 190 to 192 °C. With CCOC(=O)/C=C/c1cc(OC)c(O)c2c(CC)cccc12 the melting point was 75 to 76 °C. CCOC(=O)c1c2n(c3ccc(Cl)cc3c1=O)CCS2 gave a melting point of 321 °C. Compound CCNc1ccc(Cl)cc1[N+](=O)[O-] has a melting point of 90 to 91 °C. Compound CC(C)NCC(O)COc1ccc(NC(=O)N(C)C)cc1Cl (stereo not given) has a melting point of 130 °C. In the case of COC(=O)CCCNS(=O)(=O)c1cccc2c([N+](=O)[O-])cccc12, the melting point was 102 to 104 °C. For O=C(NCc1cccc(-c2nc(=O)c3ccccc3s2)n1)C(F)(F)F, the melting point was 226 to 227 °C. O=c1nc(-c2ccccc2)cnn1-c1cc(Cl)cc(Cl)c1 gave a melting point of 160 to 161 °C.
